These results are taken from PubChem BioAssay (NCI).

Where “and” joins values, the source holds several entries; their conditions need not be identical. Equal entries are not always repeated.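 The compound was tested at five concentrations on cells cultured in 96-well plates, with a 48-hour exposure period. GI50 is the concentration that inhibits growth by half. Definition used: TGI = concentration required for complete inhibition of growth.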

Test systems include A549 NSCLC; NCI-H23 lung; LOX IMVI melanoma; HOP-92 NSCLC; 786-0 renal; CAKI-1 renal; U251 CNS; SF-268 CNS; SR leukemia.
Holding throughout (experiment): DTP human tumour cell line panel, 48 h

For the compound `CC1(C)CC2CC(C)(CN2c2ncnc3ccc(Br)cc23)C1` (stereo unspecified), the GI50 in the test with A549 NSCLC is 2.82 µM; with NCI-H23 lung, 8.74 µM; in the test on LOX IMVI melanoma it was 13.7 µM; with HOP-92 NSCLC it was 13.4 µM; in the test on 786-0 renal it was 12.8 µM; in the test with CAKI-1 renal, 10.2 µM. Besides, the GI50 in the test with U251 CNS is 13.3 µM; in the test with SF-268 CNS, 17.9 µM. Also, the TGI in the test with A549 NSCLC is 9.11 µM; in the test with NCI-H23 lung it was 20.8 µM; in the test with LOX IMVI melanoma, 26.5 µM; with HOP-92 NSCLC, 27.3 µM; in the test on 786-0 renal, 25.4 µM; with CAKI-1 renal it was 22 µM. The TGI with U251 CNS came out at 26.1 µM; in the test with SF-268 CNS it was 37.9 µM.
With `O=C(/C=C/c1ccc(Cl)c(Cl)c1)C1CCC(Cl)CC1` (stereo unspecified), the TGI turned out to be 46.8 µM in the test on A549 NSCLC; 38.8 µM in the test on NCI-H23 lung; 30.7 µM in the test on LOX IMVI melanoma; 86.6 µM in the test with HOP-92 NSCLC; 30.6 µM in the test with 786-0 renal; 50.1 µM with CAKI-1 renal. Besides, the TGI in the test with U251 CNS came out at 28.3 µM; in the test on SF-268 CNS, 37.1 µM.
Consider `Cc1cccc(N=C2NC(=O)C(CC(=O)Nc3ccc(Cl)cc3C)S2)c1` (stereo unspecified), for which the TGI in the test on A549 NSCLC, with NCI-H23 lung, with LOX IMVI melanoma, with 786-0 renal, with CAKI-1 renal and in the test on SF-268 CNS was greater than 100 µM in each case.
With `O=c1[nH]c2c(O)cccc2c2cc3c(c(O)c12)OCO3`, the TGI in the test with A549 NSCLC is greater than 100 µM; with LOX IMVI melanoma, 38.9 µM; in the test on HOP-92 NSCLC, 63.9 µM; in the test with 786-0 renal, greater than 100 µM; in the test on CAKI-1 renal, 40.8 µM; in the test on U251 CNS it was 63.4 µM. In the test on SF-268 CNS, this compound registered a TGI of 94.2 µM.
Take `Cc1cc(=O)[nH]c(CNC(=O)Cc2ccccc2)n1`: the TGI with A549 NSCLC, in the test on NCI-H23 lung, in the test with LOX IMVI melanoma, in the test with HOP-92 NSCLC, in the test with 786-0 renal and in the test with CAKI-1 renal was greater than 100 µM in each case. The same compound came in with a TGI in the test with SF-268 CNS greater than 100 µM.
Take `CCOc1ccc(NC(=O)CCC(=O)NN)cc1`: the concentration for total growth inhibition (TGI) in the test on A549 NSCLC, in the test on NCI-H23 lung, with LOX IMVI melanoma, in the test on HOP-92 NSCLC, with 786-0 renal and in the test on CAKI-1 renal was greater than 100 µM throughout. Further, the TGI in the test on U251 CNS and in the test on SF-268 CNS was greater than 100 µM each time.
With `CCc1oc2ccc(OC)c3c2c1C=CC=C3`, the TGI in the test on A549 NSCLC, with NCI-H23 lung, with LOX IMVI melanoma, with SR leukemia, in the test on 786-0 renal and with U251 CNS was greater than 100 µM throughout. Also, the TGI in the test on SF-268 CNS was greater than 100 µM.
For the compound `CC(C)[O-].CC(C)[O-].[O-]c1cccc2cccnc12.[O-]c1cccc2cccnc12.[Ti+4]`, the GI50 with A549 NSCLC was 41.7 µM; with NCI-H23 lung, greater than 100 µM; in the test on LOX IMVI melanoma it was 74 µM; with HOP-92 NSCLC, 14.3 µM; in the test on 786-0 renal, 3.38 µM and 4.05 µM; with U251 CNS, greater than 100 µM. For the same compound, in the test on SF-268 CNS, the GI50 is 6.4 µM and 51.1 µM. The TGI in the test with A549 NSCLC was greater than 100 µM; in the test with NCI-H23 lung it was greater than 100 µM; in the test with LOX IMVI melanoma it was greater than 100 µM; in the test with HOP-92 NSCLC, 50.3 µM; with 786-0 renal, 20.9 µM; with CAKI-1 renal, greater than 100 µM. In addition, the TGI in the test with U251 CNS and in the test with SF-268 CNS was greater than 100 µM throughout.
On to `N#C/C(=C\c1ccc(O)cc1O)C(N)=O`, for which the TGI in the test on A549 NSCLC, in the test with NCI-H23 lung, with LOX IMVI melanoma, in the test with HOP-92 NSCLC, with 786-0 renal and in the test with CAKI-1 renal was greater than 100 µM throughout. Further, the TGI with U251 CNS and in the test on SF-268 CNS was greater than 100 µM throughout.
On to `CO[C@@]12CC(=O)/C(=C(O)\C=C\c3ccccc3)C(=O)[C@]1(OC)Cc1ccccc1O2`, for which the TGI is 88.8 µM with A549 NSCLC; 61.8 µM in the test on NCI-H23 lung; greater than 100 µM in the test on LOX IMVI melanoma; greater than 100 µM with HOP-92 NSCLC; 70.2 µM in the test with 786-0 renal; 59.1 µM with U251 CNS. Further, in the test on SF-268 CNS, the TGI worked out at 91.1 µM.
Turning to `CC12OC3CC(O1)C1(C=O)C4CCC5(C)C(c6ccc(=O)oc6)CCC5(O)C4CCC1(C3)O2` (stereo unspecified), the TGI with A549 NSCLC came out at 0.194 µM; in the test with LOX IMVI melanoma, 0.524 µM; in the test with SR leukemia, 0.245 µM; with HOP-92 NSCLC, 1.71 µM; in the test on 786-0 renal it was 0.246 µM; in the test on CAKI-1 renal it was 0.729 µM. Further, the results for the TGI in the test on U251 CNS and in the test on SF-268 CNS were 1.24 µM and 0.229 µM, respectively.
`N#CC12Cc3ccc4c(c3-c3cccc(c31)CCN2C(=O)c1ccccc1)OCO4` (stereo unspecified): the TGI in the test on A549 NSCLC, with NCI-H23 lung, with LOX IMVI melanoma, with SR leukemia, with HOP-92 NSCLC and with 786-0 renal was greater than 100 µM each time. Besides, the TGI with U251 CNS and in the test on SF-268 CNS was greater than 100 µM each time.
For the compound `CC1=NN(c2ccccc2)C(=O)C1N=Nc1ccc(Br)c(C)c1` (stereo unspecified), the TGI with A549 NSCLC, in the test on NCI-H23 lung, with HOP-92 NSCLC, in the test on 786-0 renal, in the test on CAKI-1 renal and with U251 CNS was greater than 100 µM each time.
